In publication PMC12186298, “Phase 1 clinical trial of eneboparatide, a novel PTH receptor 1 agonist” (Endocrine Connections, 2025):
Peptide text beside a SMILES is read from it.

Columns and labels:
Type in all cases: in vivo, human
[1] = Plasma pharmacokinetics, multiple ascending dose (Part B); settings: for AUC(0–∞) / Cmax / Tmax / AUC(0-inf): Part B MAD; for Cmax: LC-MS/MS, mean ± SD
Method: (§1) Plasma samples were collected pre-dose and at scheduled time points up to 6 h post-dose on day 1 (Parts A and B) and day 14 (Part B). The analysis of eneboparatide in plasma samples was performed at QPS (The Netherlands) using a hybrid immunoaffinity liquid chromatography–mass spectrometry/mass spectrometry (LC-MS/MS) method, with a validated lower limit of quantification (LLOQ) of 50 pg/mL.

[2] = Plasma pharmacokinetics, single ascending dose (Part A); settings: for AUC(0–∞) / Cmax / Tmax: Part A SAD; for Cmax: immunoaffinity LC-MS/MS, mean ± SD
Method: (§2) Seven sequential cohorts were included in Part A. The first cohort was single-blind and included four subjects, of which three subjects were randomized to receive 5 μg eneboparatide and one subject was randomized to receive placebo. […] Subjects in Part A were admitted to the phase 1 study centre on day 1 and received the study drug at the clinical site on day 1 as a single, subcutaneous abdominal injection in the morning. They were discharged on day 4 and were asked to return for a follow-up (FU) visit on day 5–8.
as §1

[3] = tested on: healthy subjects; assay: Pharmacodynamics (serum calcium, phosphorus, endogenous PTH, urine), Part A SAD
Method: as §2
Blood samples were taken on day 1 at pre-dose, at several time points post-dose up to day 4 and at FU (Part A), on day 1–14 (pre-dose), and day 15–17 and at FU (Part B) for the analysis of total sCa, albumin-adjusted serum calcium (ADsCa), and sPh. These parameters were also measured on day 1, 7 and 14 at several time points post-dose. Samples for serum creatinine were taken at predefined time points to allow for calculation of fractional excretion of calcium (FECa). Endogenous serum PTH(1–84) was measured on day 1 (pre-dose and 12 h post-dose), day 2–4 and at FU (Part A), on pre-dose on day 1, 7, and 14 and on day 15–17 and FU (Part B). In Part B, additional blood samples were taken on day 1, day 14 and at FU for the analysis of serum bone turnover biomarkers, including carboxy-terminal telopeptide of type I collagen (s-CTx), and procollagen type 1 amino-terminal propeptide (P1NP).
Urine collection was performed over 24 h for the analysis of calcium and creatinine on day 1–3 and at FU (Part A) and day 1, day 7, day 14 and at FU (Part B). FECa (%) was calculated by the formula: FECa = (urine calcium/serum calcium)/(urine creatinine/serum creatinine).

## CC[C@H](C)[C@H](NC(=O)[C@H](CCC(=O)O)NC(=O)[C@H](C)NC(=O)[C@@H](NC(=O)[C@H](Cc1c[nH]cn1)NC(=O)[C@@H](NC(=O)[C@H](CCC(=O)O)NC(=O)[C@H](C)NC(=O)[C@@H](NC(=O)[C@H](CC(C)C)NC(=O)[C@H](CCCCN)NC(=O)[C@H](Cc1c[nH]cn1)NC(=O)[C@H](CC(C)C)NC(=O)[C@H](Cc1ccccc1)NC(=O)[C@H](C)NC(=O)[C@H](CCCNC(=N)N)NC(=O)[C@H](CCCNC(=N)N)NC(=O)[C@H](CCCNC(=N)N)NC(=O)[C@H](C)NC(=O)[C@H](CC(=O)O)NC(=O)[C@H](CCC(N)=O)NC(=O)[C@@H](NC(=O)[C@H](Cc1c[nH]c2ccccc12)NC(=O)[C@H](CCCCN)NC(=O)[C@H](C)NC(=O)[C@H](CCCNC(=N)N)NC(=O)[C@H](CCC(N)=O)NC(=O)[C@H](Cc1c[nH]cn1)NC(=O)[C@H](CCSC)NC(=O)[C@H](CC(C)C)NC(=O)[C@H](CCC(N)=O)NC(=O)[C@@H](NC(=O)[C@H](CCC(=O)O)NC(=O)[C@H](C)NC(=O)[C@@H](NC(=O)[C@H](C)N)C(C)C)[C@@H](C)CC)[C@@H](C)CC)[C@@H](C)CC)[C@@H](C)CC)[C@@H](C)O)C(=O)O [eneboparatide] (H-AVAEIQLMHQRAKWIQDARRRAFLHKLIAEIHTAEI-OH; N-terminus and C-terminus assumed)
[1]; 10 μg/day sc, Day 1, n = 4, mean ± SD
  AUC(0–∞): 3.26 ± 3.20 ng·h/mL
[1]; 10 μg/day sc, Day 1, n = 4, plasma
  Cmax: 20.6 ± 3.43 ng/mL
[1]; 10 μg/day sc, Day 14, n = 4, plasma
  Cmax: 18.4 ± 5.37 ng/mL
[1]; 20 μg/day sc, Day 1, n = 8, mean ± SD
  AUC(0–∞): 7.69 ± 5.52 ng·h/mL
[1]; 20 μg/day sc, Day 1, n = 8, plasma
  Cmax: 19.6 ± 5.68 ng/mL
[1]; 40 μg/day sc, Day 1, n = 8, mean ± SD
  AUC(0–∞): 15.8 ± 11.5 ng·h/mL
[1]; 40 μg/day sc, Day 1, n = 8, plasma
  Cmax: 23.8 ± 8.97 ng/mL
[1]; 40 μg/day sc, Day 14, n = 8, median
  Tmax: 10.2 min
[1]; 60 μg/day sc, Day 1, n = 8, mean ± SD
  AUC(0–∞): 43.3 ± 18.1 ng·h/mL
[1]; 60 μg/day sc, Day 1, n = 8, plasma
  Cmax: 42.9 ± 30.3 ng/mL
[1]; 60 μg/day sc, Day 14, n = 7, median
  Tmax: 19.8 min
[1]; 80 μg/day sc, Day 1, n = 8, mean ± SD
  AUC(0–∞): 64.2 ± 56.1 ng·h/mL
[1]; 80 μg/day sc, Day 1, n = 8, plasma
  Cmax: 124 ± 105 ng/mL
[1]; after 14 consecutive daily administrations, day 14 vs day 1
  accumulation in plasma: absence of accumulation
[1]; human, plasma, sc, 10 μg/day, 10 μg/day sc, Day 1, n = 4, median, read-out: Tmax
  Tmax: 19.8 min
[1]; human, plasma, sc, 10 μg/day, 10 μg/day sc, Day 14, n = 4, median, read-out: Tmax
  Tmax: 5.4 min
[1]; human, plasma, sc, 20 μg/day, 20 μg/day sc, Day 1, n = 8, median, read-out: Tmax
  Tmax: 7.8 min
[1]; human, plasma, sc, 20 μg/day, 20 μg/day sc, Day 14, n = 7, median, read-out: Tmax
  Tmax: 10.2 min
[1]; human, plasma, sc, 40 μg/day, 40 μg/day sc, Day 1, n = 8, median, read-out: Tmax
  Tmax: 10.2 min
[1]; human, plasma, sc, 60 μg/day, 60 μg/day sc, Day 1, n = 8, median, read-out: Tmax
  Tmax: 19.8 min
[1]; human, plasma, sc, 80 μg/day, 80 μg/day sc, Day 1, n = 8, median, read-out: Tmax
  Tmax: 10.2 min
[1]; human, plasma, sc, 80 μg/day, 80 μg/day sc, Day 14, n = 8, median, read-out: Tmax
  Tmax: 10.8 min
[1]; human, plasma, 10 μg/day sc, Day 14, n = 4, mean ± SD
  AUC(0-inf): 2.02 ± 2.41 ng·h/mL
[1]; human, plasma, 20 μg/day sc, Day 14, n = 7, mean ± SD
  AUC(0-inf): 4.63 ± 3.29 ng·h/mL
[1]; human, plasma, 40 μg/day sc, Day 14, n = 8, mean ± SD
  AUC(0-inf): 12.5 ± 4.75 ng·h/mL
[1]; human, plasma, 60 μg/day sc, Day 14, n = 7, mean ± SD
  AUC(0-inf): 58.8 ± 30.3 ng·h/mL
[1]; human, plasma, 80 μg/day sc, Day 14, n = 8, mean ± SD
  AUC(0-inf): 51.9 ± 51.6 ng·h/mL
[1]; human, 20 μg/day sc, Day 14, n = 7, plasma, read-out: Cmax
  Cmax: 18.3 ± 6.78 ng/mL
[1]; human, 40 μg/day sc, Day 14, n = 8, plasma, read-out: Cmax
  Cmax: 23.6 ± 5.5 ng/mL
[1]; human, 60 μg/day sc, Day 14, n = 7, plasma, read-out: Cmax
  Cmax: 44.9 ± 17.9 ng/mL
[1]; human, 80 μg/day sc, Day 14, n = 8, plasma, read-out: Cmax
  Cmax: 63.5 ± 28.3 ng/mL
[2]; single sc 5 μg, n = 2, mean ± SD
  AUC(0–∞): 0.399 ± 0.032 ng·h/mL
[2]; single sc 5 μg, n = 2, plasma
  Cmax: 6.82 ± 2.19 ng/mL
[2]; single sc 10 μg, n = 4, mean ± SD
  AUC(0–∞): 5.20 ± 3.38 ng·h/mL
[2]; single sc 10 μg, n = 4, plasma
  Cmax: 11.4 ± 4.32 ng/mL
[2]; single sc 20 μg, n = 6, mean ± SD
  AUC(0–∞): 9.55 ± 4.12 ng·h/mL
[2]; single sc 20 μg, n = 6, plasma
  Cmax: 24.1 ± 8.18 ng/mL
[2]; single sc 40 μg, n = 2, mean ± SD
  AUC(0–∞): 10.4 ± 13.4 (n = 2) ng·h/mL
[2]; single sc 40 μg, n = 3, plasma
  Cmax: 26.3 ± 4.79 ng/mL
[2]; single sc 60 μg, n = 6, mean ± SD
  AUC(0–∞): 16.8 ± 14.7 ng·h/mL
[2]; single sc 60 μg, n = 6, plasma
  Cmax: 28.5 ± 10.8 ng/mL
[2]; single sc 90 μg, n = 6, mean ± SD
  AUC(0–∞): 31.7 ± 12.5 ng·h/mL
[2]; single sc 90 μg, n = 6, plasma
  Cmax: 37.5 ± 11.6 ng/mL
[2]; single sc 120 μg, n = 6, mean ± SD
  AUC(0–∞): 26.1 ± 16.4 ng·h/mL
[2]; single sc 120 μg, n = 6, plasma
  Cmax: 57.4 ± 28.7 ng/mL
[2]; Parts A and B, sc, all doses
  median time to maximum plasma concentration: 5 to 20 min
[2]; SAD, single sc 10 to 120 μg, LLOQ 50 pg/mL
  detectability of eneboparatide in the circulation after administration: almost undetectable beyond 2 h after administration
[2]; human, plasma, 5 ug, single sc 5 μg, n = 2, median
  Tmax: 15 min
[2]; human, plasma, 10 ug, single sc 10 μg, n = 4, median
  Tmax: 13.2 min
[2]; human, plasma, 20 ug, single sc 20 μg, n = 6, median
  Tmax: 6 min
[2]; human, plasma, 40 ug, single sc 40 μg, n = 3, median
  Tmax: 4.8 min
[2]; human, plasma, 60 ug, single sc 60 μg, n = 6, median
  Tmax: 10.2 min
[2]; human, plasma, 90 ug, single sc 90 μg, n = 6, median
  Tmax: 19.8 min
[2]; human, plasma, 120 ug, single sc 120 μg, n = 6, median
  Tmax: 19.8 min
[2]; human, plasma, normal subjects, sc, read-out: circulating half-life
  half-life: < 120 min
[3]; increasing single doses
  urinary excretion of calcium or phosphorus: no apparent dose-related changes
[3]; single sc 20 μg, moderate but persistent elevation
  duration of elevation of ADsCa post-dose vs placebo: up to 18 h
[3]; single sc 5 and 10 μg
  effect on physiological decline in ADsCa: blunted this physiological decline in ADsCa during the first 6 h post-dosing
[3]; single sc 20–120 μg
  persistence of dose-dependent decrease of endogenous sPTH(1–84): 24 to 72 h
